{"source": "ChEMBL document CHEMBL5260833", "about": "“An overview of quinazolines: Pharmacological significance and recent developments” (Eur J Med Chem, 2018)", "key": {"CCRF-CEM": {"tested_on": "CCRF-CEM", "assay": "Anticancer activity against human CCRF-CEM cell assessed as cell growth inhibition measured after 120 hrs", "type": "functional, cell-based"}, "WIL2": {"tested_on": "WIL2", "assay": "Anticancer activity against human WIL2 cell assessed as cell growth inhibition measured after 120 hrs", "type": "functional, cell-based", "details": "WIL2, 120 h"}, "Mus musculus [1]": {"tested_on": "Mus musculus", "assay": "Sedative activity in mouse assessed as sleeping time at 300 mg/kg, ip", "type": "functional"}, "Canis familiaris": {"tested_on": "Canis familiaris", "assay": "Antiplatelet activity in iv dosed dog assessed as platelet aggregation", "type": "functional, organism-based", "details": "Canis lupus familiaris"}, "Mus musculus [2]": {"species": "Mus musculus", "assay": "Sedative hypnotic activity in mouse", "type": "functional", "set-up": "concentration or dose not given beside the values"}, "[3]": {"assay": "CNS toxicity in po dosed mouse assessed as depression in CNS", "type": "organism-based", "details": "in vivo"}, "[4]": {"tested_on": "Human immunodeficiency virus 2", "assay": "Antiviral activity against HIV-2 infected in human MT4 cells assessed as protection against virus-induced cytotoxicity relative to control", "type": "functional", "set-up": "concentration or dose not given beside the values"}, "[5]": {"tested_on": "Human immunodeficiency virus 1", "assay": "Antiviral activity against HIV-1 infected in human MT4 cells assessed as protection against virus-induced cytotoxicity relative to control", "type": "functional", "set-up": "concentration or dose not given beside the values"}, "Homo sapiens [6]": {"species": "Homo sapiens", "assay": "Immunosuppressive activity in human B cell", "type": "functional, organism-based"}, "Homo sapiens [7]": {"species": "Homo sapiens", "assay": "Immunosuppressive activity in human T cell", "type": "functional, organism-based"}, "[8]": {"assay": "Antiviral activity against Gomphrena mosaic virus relative to control", "type": "functional, Gomphrena mosiac virus", "set-up": "concentration or dose not given beside the values"}, "Oryctolagus cuniculus": {"tested_on": "Oryctolagus cuniculus", "assay": "Antihypertensive activity in po dosed rabbit assessed as decrease in 30mmhg of systolic blood pressure measured after 4 to 6 hrs", "type": "functional", "details": "time 4-6 hrs"}, "Rattus norvegicus [9]": {"tested_on": "Rattus norvegicus", "assay": "Antiinflammatory activity in carrageenan induced rat at assessed as reduction in paw edema 50 mg/kg, ip measured after […] relative to control", "type": "functional", "set-up": "scale not given: the % may be the effect or the level left"}, "Rattus norvegicus [10]": {"tested_on": "Rattus norvegicus", "assay": "Antiinflammatory activity in rat at assessed as reduction in paw edema at 200 mg/kg relative to control", "type": "functional"}, "Mus musculus [11]": {"tested_on": "Mus musculus", "assay": "Sedative activity in mouse assessed as sleeping time at 30 mg/kg, ip", "type": "functional"}, "Mus musculus [12]": {"tested_on": "Mus musculus", "assay": "Sedative activity in mouse assessed as sleeping time at 100 mg/kg, ip", "type": "functional"}, "[13]": {"molecular_target": "Histamine H2 receptor (Homo sapiens) (UniProt P25021)", "sequence (P25021 whole entry)": "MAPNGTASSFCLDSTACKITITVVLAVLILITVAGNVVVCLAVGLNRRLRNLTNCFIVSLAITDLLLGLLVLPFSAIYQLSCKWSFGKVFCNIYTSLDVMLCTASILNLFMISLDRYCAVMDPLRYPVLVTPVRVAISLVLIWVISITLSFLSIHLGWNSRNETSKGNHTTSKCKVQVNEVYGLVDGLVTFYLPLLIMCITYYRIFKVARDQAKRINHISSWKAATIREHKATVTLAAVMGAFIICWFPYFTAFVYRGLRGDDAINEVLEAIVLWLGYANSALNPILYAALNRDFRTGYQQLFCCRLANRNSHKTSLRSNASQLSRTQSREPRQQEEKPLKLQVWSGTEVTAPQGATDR", "assay": "Inhibition of histamine h2 (unknown origin)"}, "Mus musculus [14]": {"tested_on": "Mus musculus", "assay": "Anticonvulsant activity in ip dosed mouse assessed as reduction in tonus phase", "type": "functional"}, "Mus musculus [15]": {"tested_on": "Mus musculus", "assay": "Anticonvulsant activity in ip dosed mouse assessed as reduction in clonus phase", "type": "functional"}}, "data": [{"smiles": "COC(=O)CCC(NC(=O)c1ccc(NCc2ccc3nc(C)[nH]c(=O)c3c2Cl)s1)C(=O)OC", "note": "(stereo not given)", "values": [{"measurement": "IC50", "setting": "CCRF-CEM", "value": 2100, "unit": "nM"}, {"measurement": "IC50", "setting": "WIL2", "value": 1800, "unit": "nM"}]}, {"smiles": "O=c1c2ccccc2nc(-c2cccnc2)n1-c1ccccc1F", "values": [{"measurement": "Time", "setting": "Mus musculus [1]", "value": 395.5, "unit": "min"}]}, {"smiles": "CCCCS(=O)(=O)NC(CCCc1ccc2[nH]c(=O)n(CCC3CCNCC3)c(=O)c2c1)C(=O)O", "note": "(stereo not given)", "values": [{"measurement": "IC50", "setting": "Canis familiaris", "value": 210, "unit": "nM"}]}, {"smiles": "Cc1cccc(-n2c(=O)c3ccccc3n3cnnc23)c1", "values": [{"measurement": "Activity", "setting": "Mus musculus [2]", "value": 4, "unit": "%"}]}, {"smiles": "Cc1cccc(-n2c(=O)c3ccccc3n3c(CCl)nnc23)c1", "values": [{"measurement": "Activity", "setting": "Mus musculus [2]", "value": 4, "unit": "%"}]}, {"smiles": "CN(C)CCC(c1ccc(Cl)cc1)c1ccccn1", "note": "(stereo not given) [CHLORPHENIRAMINE]", "values": [{"measurement": "Activity", "setting": "Mus musculus [2]", "value": 25, "unit": "%"}]}, {"smiles": "O=C(CO)Nc1ccc2nc(CF)n(-c3ccccc3CO)c(=O)c2c1", "values": [{"measurement": "LD50", "setting": "[3]", "value": "> 1000", "unit": "mg/kg"}]}, {"smiles": "Cc1nc2ccccc2c(=O)n1NCN(C)C", "values": [{"measurement": "Activity", "setting": "[4]", "value": 25, "unit": "%"}, {"measurement": "Activity", "setting": "[5]", "value": 21, "unit": "%"}]}, {"smiles": "Cc1nc2ccc(CN(C)c3ccc(C(=O)N[C@@H](C[C@@H](F)C(=O)O)C(=O)O)s3)cc2c(=O)[nH]1", "values": [{"measurement": "IC50", "setting": "Homo sapiens [6]", "value": 8.08, "unit": "nM"}, {"measurement": "IC50", "setting": "Homo sapiens [7]", "value": 5.67, "unit": "nM"}]}, {"smiles": "O=c1c2ccccc2nc(S)n1NCNc1ccccc1", "values": [{"measurement": "Activity", "setting": "[4]", "value": 27, "unit": "%"}, {"measurement": "Activity", "setting": "[5]", "value": 25, "unit": "%"}]}, {"smiles": "Cc1ccccc1-n1c(CF)nc2ccc(NC(=O)CO)cc2c1=O", "values": [{"measurement": "LD50", "setting": "[3]", "value": "> 1000", "unit": "mg/kg"}]}, {"smiles": "CCCCS(=O)(=O)NC(CCCc1ccc2c(c1)c(=O)n(CCC1CCNCC1)c(=O)n2C)C(=O)O", "note": "(stereo not given)", "values": [{"measurement": "IC50", "setting": "Canis familiaris", "value": 210, "unit": "nM"}]}, {"smiles": "CC(/N=N/n1cnc2ccccc2c1=O)=N\\Nc1ccc(Cl)cc1", "values": [{"measurement": "Activity", "setting": "[8]", "value": 15, "unit": "%"}]}, {"smiles": "CCCCS(=O)(=O)NC(CC#Cc1ccc2[nH]c(=O)n(CCC3CCNCC3)c(=O)c2c1)C(=O)O", "note": "(stereo not given)", "values": [{"measurement": "IC50", "setting": "Canis familiaris", "value": 210, "unit": "nM"}]}, {"smiles": "CCNC(=O)OCc1nc2cc(C)c(C(=O)OCC)c(C)c2c(=O)n1-c1ccccc1Cl", "values": [{"measurement": "ED30", "setting": "Oryctolagus cuniculus", "value": 0.35, "unit": "mg/kg"}]}, {"smiles": "COc1ccc(N/N=C(C)/N=N/n2cnc3ccccc3c2=O)cc1", "values": [{"measurement": "Activity", "setting": "[8]", "value": 15, "unit": "%"}]}, {"smiles": "CCCCS(=O)(=O)NC(CCCc1ccc2c(c1)c(=O)n(CCC1CCNCC1)c(=O)n2Cc1ccccc1)C(=O)O", "note": "(stereo not given)", "values": [{"measurement": "IC50", "setting": "Canis familiaris", "value": 210, "unit": "nM"}]}, {"smiles": "O=c1c2ccccc2nc(-c2ccccc2)n1-c1nc2ccccc2s1", "values": [{"measurement": "Activity", "setting": "Rattus norvegicus [9]", "value": 30.3, "unit": "%"}]}, {"smiles": "CC(=O)Nc1ccc2nc(CF)n(-c3ccccc3C)c(=O)c2c1", "values": [{"measurement": "LD50", "setting": "[3]", "value": "> 1000", "unit": "mg/kg"}]}, {"smiles": "O=c1c2ccccc2nc(S)n1NCNc1ccccn1", "values": [{"measurement": "Activity", "setting": "[4]", "value": 27, "unit": "%"}, {"measurement": "Activity", "setting": "[5]", "value": 25, "unit": "%"}]}, {"smiles": "O=C(O)c1ccc(Cl)cc1-n1c(/C=C/c2ccc(F)cc2)nc2ccccc2c1=O", "values": [{"measurement": "inhibition in vivo at 200 mg/kg", "setting": "Rattus norvegicus [10]", "value": 62.2, "unit": "%"}]}, {"smiles": "O=c1c2ccccc2nc(-c2ccncc2)n1-c1ccccc1F", "values": [{"measurement": "Time", "setting": "Mus musculus [11]", "value": 3.5, "unit": "min"}, {"measurement": "Time", "setting": "Mus musculus [12]", "value": 111.2, "unit": "min"}, {"measurement": "Time", "setting": "Mus musculus [1]", "value": 699.7, "unit": "min"}]}, {"smiles": "CC(/N=N/n1cnc2ccccc2c1=O)=N\\Nc1ccccc1Cl", "values": [{"measurement": "Activity", "setting": "[8]", "value": 15, "unit": "%"}]}, {"smiles": "O=C(O)c1cc(Br)ccc1-n1c(/C=C/c2ccc(O)cc2)nc2ccccc2c1=O", "values": [{"measurement": "inhibition in vivo at 200 mg/kg", "setting": "Rattus norvegicus [10]", "value": 62.2, "unit": "%"}]}, {"smiles": "Nc1nc(N)c2c(CCCc3ccc(C(=O)N[C@@H](C[C@H](F)C(=O)O)C(=O)O)cc3)c[nH]c2n1", "values": [{"measurement": "IC50", "setting": "Homo sapiens [6]", "value": 2930, "unit": "nM"}, {"measurement": "IC50", "setting": "Homo sapiens [7]", "value": 1410, "unit": "nM"}]}, {"smiles": "O=C(O)c1cc(Br)ccc1-n1c(/C=C/c2ccc([N+](=O)[O-])cc2)nc2ccccc2c1=O", "values": [{"measurement": "inhibition in vivo at 200 mg/kg", "setting": "Rattus norvegicus [10]", "value": 62.2, "unit": "%"}]}, {"smiles": "O=c1c2ccccc2nc(S)n1NCn1cnc2ccccc21", "values": [{"measurement": "Activity", "setting": "[4]", "value": 27, "unit": "%"}, {"measurement": "Activity", "setting": "[5]", "value": 25, "unit": "%"}]}, {"smiles": "CC(/N=N/n1cnc2ccccc2c1=O)=N\\Nc1ccccc1", "values": [{"measurement": "Activity", "setting": "[8]", "value": 15, "unit": "%"}]}, {"smiles": "Cc1cccc(-n2c(=O)c3ccccc3n3c(C)nnc23)c1", "values": [{"measurement": "Activity", "setting": "Mus musculus [2]", "value": 4, "unit": "%"}]}, {"smiles": "CC(=O)Nc1ccc2nc(CF)n(-c3ccccc3CO)c(=O)c2c1", "values": [{"measurement": "LD50", "setting": "[3]", "value": "> 1000", "unit": "mg/kg"}]}, {"smiles": "C#CCN(Cc1ccc2nc(C)[nH]c(=O)c2c1)c1ccc(C(=O)N[C@@H](C[C@H](F)C(=O)O)C(=O)O)cc1", "values": [{"measurement": "IC50", "setting": "Homo sapiens [6]", "value": 8.08, "unit": "nM"}, {"measurement": "IC50", "setting": "Homo sapiens [7]", "value": 5.67, "unit": "nM"}]}, {"smiles": "O=c1[nH]c(NCCCOc2cccc(CN3CCCCC3)c2)nc2ccccc12", "values": [{"measurement": "pKb", "setting": "[13]", "value": 7.39}]}, {"smiles": "Nc1nc2c(c(=O)[nH]1)C[C@@H](CCc1ccc(C(=O)N[C@@H](C[C@H](F)C(=O)O)C(=O)O)cc1)CN2", "values": [{"measurement": "IC50", "setting": "Homo sapiens [6]", "value": 2930, "unit": "nM"}, {"measurement": "IC50", "setting": "Homo sapiens [7]", "value": 2300, "unit": "nM"}]}, {"smiles": "CN(Cc1cnc2nc(N)nc(N)c2n1)c1ccc(C(=O)N[C@@H](CCC(=O)O)C(=O)O)cc1", "note": "[METHOTREXATE]", "values": [{"measurement": "IC50", "setting": "Homo sapiens [6]", "value": 27.5, "unit": "nM"}, {"measurement": "IC50", "setting": "Homo sapiens [7]", "value": 13.4, "unit": "nM"}]}, {"smiles": "CCCCS(=O)(=O)NC(CNC(=O)c1ccc2[nH]c(=O)n(CCC3CCNCC3)c(=O)c2c1)C(=O)O", "note": "(stereo not given)", "values": [{"measurement": "IC50", "setting": "Canis familiaris", "value": 210, "unit": "nM"}]}, {"smiles": "O=C(O)c1ccc(Cl)c(-n2c(/C=C/c3ccc(F)cc3)nc3ccccc3c2=O)c1", "values": [{"measurement": "inhibition in vivo at 200 mg/kg", "setting": "Rattus norvegicus [10]", "value": 62.2, "unit": "%"}]}, {"smiles": "Oc1nc(-c2ccc(Br)cc2)nc2cc3c(cc12)OCO3", "values": [{"measurement": "ED50", "setting": "Mus musculus [14]", "value": 27.8, "unit": "µmol/kg"}, {"measurement": "ED50", "setting": "Mus musculus [15]", "value": 32.7, "unit": "µmol/kg"}]}]}
